Measurements from ChEMBL document CHEMBL3886609, “Piperidylpyrimidine derivatives as modulators of protein kinase inhibitors and of vascular endothelial growth factor receptor 2” (2016).

Target: Vascular endothelial growth factor receptor 2 (Homo sapiens, UniProt P35968)
Experiment: VEGFR2 Kinase Assay: Biochemical KDR kinase assays were performed in 96 well microtiter plates that were coated overnight with 75 ug/well of poly-Glu-Tyr (4:1) in 10 mM Phosphate Buffered Saline (PBS), pH 7.4. The coated plates were washed with 2 mls per well PBS+0.05% Tween-20 (PBS-T), blocked by incubation with PBS containing 1% BSA, then washed with 2 mls per well PBS-T prior to starting the reaction. Reactions were carried out in 100 uL reaction volumes containing 2.7 uM ATP in kinase buffer (50 mM Hepes buffer pH 7.4, 20 mM MgCl2, 0.1 mM MnCl2 and 0.2 mM Na3VO4). Test compounds were reconstituted in 100% DMSO and added to the reaction to give a final DMSO concentration of 5%. Reactions were initiated by the addition 20 ul per well of kinase buffer containing 200-300 ng purified cytoplasmic domain KDR protein (BPS Bioscience, San Diego, Calif.). Following a 15 minute incubation at 30° C., the reactions were washed 2 mls per well PBS-T. 100 ul of a monoclonal anti-phosphotyrosine antibody-peroxidase conjugate diluted 1:10,000 in PBS-T was added to the wells for 30 minutes. Following a 2 mls per well wash with PBS-Tween-20, 100 ul of 0-Phenylenediamine Dihydrochloride in phosphate-citrate buffer, containing urea hydrogen peroxide, was added to the wells for 7-10 minutes as a colorimetric substrate for the peroxidase. […]

Chain of Vascular endothelial growth factor receptor 2 (P35968 whole entry): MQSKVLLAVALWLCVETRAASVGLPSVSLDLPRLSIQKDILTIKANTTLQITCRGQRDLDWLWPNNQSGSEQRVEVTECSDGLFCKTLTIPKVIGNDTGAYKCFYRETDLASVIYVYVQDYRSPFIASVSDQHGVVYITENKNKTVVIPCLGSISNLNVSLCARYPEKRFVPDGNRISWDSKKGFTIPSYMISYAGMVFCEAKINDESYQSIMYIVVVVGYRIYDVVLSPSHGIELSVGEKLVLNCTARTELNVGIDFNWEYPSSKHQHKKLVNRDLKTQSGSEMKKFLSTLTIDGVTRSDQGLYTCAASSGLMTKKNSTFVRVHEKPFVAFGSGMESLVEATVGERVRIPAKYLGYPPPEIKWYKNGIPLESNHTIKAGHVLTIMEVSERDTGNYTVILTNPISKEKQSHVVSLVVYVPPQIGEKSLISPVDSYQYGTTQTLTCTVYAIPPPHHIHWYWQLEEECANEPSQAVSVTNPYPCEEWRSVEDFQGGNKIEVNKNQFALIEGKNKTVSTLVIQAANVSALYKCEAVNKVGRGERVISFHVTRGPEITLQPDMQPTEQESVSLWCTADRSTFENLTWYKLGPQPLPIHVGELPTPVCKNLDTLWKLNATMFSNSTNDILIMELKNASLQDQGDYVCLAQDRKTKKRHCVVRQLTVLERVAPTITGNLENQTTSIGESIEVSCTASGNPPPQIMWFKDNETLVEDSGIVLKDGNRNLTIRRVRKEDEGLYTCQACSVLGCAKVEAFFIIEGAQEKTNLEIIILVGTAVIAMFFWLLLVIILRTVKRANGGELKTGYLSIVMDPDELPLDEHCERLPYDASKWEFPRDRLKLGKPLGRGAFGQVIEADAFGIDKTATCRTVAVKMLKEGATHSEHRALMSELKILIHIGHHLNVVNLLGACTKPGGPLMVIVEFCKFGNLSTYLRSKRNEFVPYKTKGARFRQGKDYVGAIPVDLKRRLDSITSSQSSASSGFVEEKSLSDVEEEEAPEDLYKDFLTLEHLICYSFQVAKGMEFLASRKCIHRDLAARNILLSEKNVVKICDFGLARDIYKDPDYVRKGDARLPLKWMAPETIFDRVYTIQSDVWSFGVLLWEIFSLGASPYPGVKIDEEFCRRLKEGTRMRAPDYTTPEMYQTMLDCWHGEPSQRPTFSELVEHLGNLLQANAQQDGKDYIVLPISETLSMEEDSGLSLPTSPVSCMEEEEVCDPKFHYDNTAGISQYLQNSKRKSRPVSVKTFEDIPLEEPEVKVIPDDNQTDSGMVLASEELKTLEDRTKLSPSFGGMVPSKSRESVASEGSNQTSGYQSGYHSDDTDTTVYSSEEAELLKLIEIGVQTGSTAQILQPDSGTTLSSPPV

O=C(c1cccnc1)N1CCc2nc(Nc3ccsc3)ncc2C1
IC50: 11 nM
